Measurements published in US10112899B2 (ViiV HEALTHCARE UK LIMITED, priority 2014, dated 2018).

Tested on: HIV in the HTLV-1 transformed cell line MT-4
Assay: organism not typed
Type: cell-based
Settings: MT-4 cells, luciferase/cell titer glo readout after 96 hours, 10 point dose response

Work on Cc1c(-c2c(C)c3c(c(C)c2[C@H](OC(C)(C)C)C(=O)O)CN(C(=O)N2CCCCC2)C3)cc(F)c2c1NCCO2 [Example 318, (2S)-2-(tert-butoxy)-2-(6-(8-fluoro-5-methyl-3,4-dihydro-2H-benzo[b][1,4]oxazin-6-yl)-4,7-dimethyl-2-(piperidine-1-carbonyl)isoindolin-5-yl)acetic acid] yielded an IC50 (MT4, 96 h) of 5 nM.

Cc1c(-c2c(C)c3c(c(C)c2[C@H](OC(C)(C)C)C(=O)O)CN(C(=O)c2cc(F)c(F)c(Cl)c2)C3)cc(F)c2c1CCCO2 (atropisomer, axis not shown; (M)) [Example 194, (S)-2-(tert-butoxy)-2-((M)-2-(3-chloro-4,5-difluorobenzoyl)-6-(8-fluoro-5-methylchroman-6-yl)-4,7-dimethylisoindolin-5-yl)acetic acid] was tested, and the IC50 (MT4, 96 h) was 11 nM.

With Cc1ccc(C)c(C(=O)N2Cc3c(C)c(-c4cc(F)c5c(c4C)CCCO5)c([C@H](OC(C)(C)C)C(=O)O)c(C)c3C2)c1 (atropisomer, axis not shown; (M)) [Example 157, (S)-2-(tert-butoxy)-2-(2-(2,5-dimethylbenzoyl)-6-((M)-8-fluoro-5-methylchroman-6-yl)-4,7-dimethylisoindolin-5-yl)acetic acid] the IC50 (MT4, 96 h) was 3 nM.

Work on Cc1cc(Cl)ccc1-c1c(C)c2c(c(C)c1[C@H](OC(C)(C)C)C(=O)O)CN(C(=O)CC(C)(C)C)C2 [Example 325, (2S)-2-(tert-butoxy)-2-(6-(4-chloro-2-methylphenyl)-2-(3,3-dimethylbutanoyl)-4,7-dimethylisoindolin-5-yl)acetic acid] yielded an IC50 (MT4, 96 h) of 13 nM.

Cc1ccc(-c2c(C)c3c(c(C)c2[C@H](OC(C)(C)C)C(=O)O)CN(C(=O)c2cccc4c2OCC4)C3)cc1 [Example 164, (S)-2-(tert-butoxy)-2-(2-(2,3-dihydrobenzofuran-7-carbonyl)-4,7-dimethyl-6-(p-tolyl)isoindolin-5-yl)acetic acid] gave an IC50 (MT4, 96 h) of 4 nM.

Work on Cc1ccc(-c2c(C)c3c(c(C)c2[C@H](OC(C)(C)C)C(=O)O)CN(C(=O)OC(C)(C)C)C3)cc1 [Example 126, (S)-2-(tert-butoxy)-2-(2-(tert-butoxycarbonyl)-4,7-dimethyl-6-(p-tolyl)isoindolin-5-yl)acetic acid] yielded an IC50 (MT4, 96 h) of 13 nM.

COc1ccccc1C(=O)N1Cc2c(C)c(-c3ccc(C)cc3)c([C@H](OC(C)(C)C)C(=O)O)c(C)c2C1 [Example 163, (S)-2-(tert-butoxy)-2-(2-(2-methoxybenzoyl)-4,7-dimethyl-6-(p-tolyl)isoindolin-5-yl)acetic acid] gave an IC50 (MT4, 96 h) of 4 nM.

With Cc1ccc(-c2c(C)c3c(c(C)c2[C@H](OC(C)(C)C)C(=O)O)CN(Cc2ccc(Cl)c(Cl)c2)C3)cc1 [Example 26, (S)-2-(tert-butoxy)-2-(2-(3,4-dichlorobenzyl)-4,7-dimethyl-6-(p-tolyl)isoindolin-5-yl)acetic acid] the IC50 (MT4, 96 h) was 54 nM.

Cc1ccc(-c2c(C)c3c(c(C)c2[C@H](OC(C)(C)C)C(=O)O)CN(C(=O)c2cocn2)C3)cc1 [Example 272, (S)-2-(tert-butoxy)-2-(4,7-dimethyl-2-(oxazole-4-carbonyl)-6-(p-tolyl)isoindolin-5-yl)acetic acid] gave an IC50 (MT4, 96 h) of 86 nM.

For Cc1ccc(-c2c(C)c3c(c(C)c2[C@H](OC(C)(C)C)C(=O)O)CN(CC(C)C)C3)cc1 [Example 25, (S)-2-(tert-butoxy)-2-(2-isobutyl-4,7-dimethyl-6-(p-tolyl)isoindolin-5-yl)acetic acid], the IC50 (MT4, 96 h) was 946 nM.

In the case of Cc1c(-c2c(C)c3c(c(C)c2[C@H](OC(C)(C)C)C(=O)O)CN(C(=O)N2CCC(C)(C)CC2)C3)cc(F)c2c1CCCO2 (atropisomer, axis not shown; (M)) [Example 211, (S)-2-(tert-butoxy)-2-((M)-2-(4,4-dimethylpiperidine-1-carbonyl)-6-(8-fluoro-5-methylchroman-6-yl)-4,7-dimethylisoindolin-5-yl)acetic acid], the IC50 (MT4, 96 h) is reported as 5 nM.

Compound COC1CCCC(C(=O)N2Cc3c(C)c(-c4ccc(C)cc4)c([C@H](OC(C)(C)C)C(=O)O)c(C)c3C2)C1 (stereo partly drawn) [Example 245, (2S)-2-(tert-butoxy)-2-(2-(3-methoxycyclohexanecarbonyl)-4,7-dimethyl-6-(p-tolyl)isoindolin-5-yl)acetic acid] has an IC50 of 26 nM.

Cc1c(-c2c(C)c3c(c(C)c2[C@H](OC(C)(C)C)C(=O)O)CN(C(=O)N2CCC(F)(F)C2)C3)cc(F)c2c1NCCO2 [Example 315, (2S)-2-(tert-butoxy)-2-(2-(3,3-difluoropyrrolidine-1-carbonyl)-6-(8-fluoro-5-methyl-3,4-dihydro-2H-benzo[b][1,4]oxazin-6-yl)-4,7-dimethylisoindolin-5-yl) acetic acid] was tested, and the IC50 (MT4, 96 h) was 15 nM.

Work on COC1CCCC(C(=O)N2Cc3c(C)c(-c4ccc(C)cc4)c([C@H](OC(C)(C)C)C(=O)O)c(C)c3C2)C1 (stereo partly drawn) [Example 244, (2S)-2-(tert-butoxy)-2-(2-(3-methoxycyclohexanecarbonyl)-4,7-dimethyl-6-(p-tolyl)isoindolin-5-yl)acetic acid] yielded an IC50 (MT4, 96 h) of 14 nM.

With COc1cc(C(=O)N2Cc3c(C)c(-c4cc(F)c5c(c4C)CCCO5)c([C@H](OC(C)(C)C)C(=O)O)c(C)c3C2)ccc1C (atropisomer, axis not shown; (M)) [Example 156, (S)-2-(tert-butoxy)-2-(6-((M)-8-fluoro-5-methylchroman-6-yl)-2-(3-methoxy-4-methylbenzoyl)-4,7-dimethylisoindolin-5-yl)acetic acid] the IC50 (MT4, 96 h) was 3 nM.

Compound Cc1c2c(c(C)c([C@H](OC(C)(C)C)C(=O)O)c1-c1ccc3c4c(ccnc14)CCO3)CN(C(=O)c1cccc(F)c1)C2 [Example 299, (2S)-2-(tert-butoxy)-2-(6-(2,3-dihydropyrano[4,3,2-de]quinolin-7-yl)-2-(3-fluorobenzoyl)-4,7-dimethylisoindolin-5-yl)acetic acid] has an IC50 (MT4, 96 h) of 14 nM.

In the case of Cc1ccc(-c2c(C)c3c(c(C)c2[C@H](OC(C)(C)C)C(=O)O)CN(Cc2cccc(C(=O)N4CCCCC4)c2)C3)cc1 [Example 44, (2S)-2-(tert-butoxy)-2-[4,7-dimethyl-6-(4-methylphenyl)-2-{[3-(piperidine-1-carbonyl)phenyl]methyl}-2,3-dihydro-1H-isoindol-5-yl]acetic acid], the IC50 (MT4, 96 h) is reported as 3350 nM.

In the case of Cc1ccc(-c2c(C)c3c(c(C)c2[C@H](OC(C)(C)C)C(=O)O)CN(C(=O)c2cc(F)cc(C(=O)O)c2)C3)cc1 [Example 267, (S)-3-(5-(tert-butoxy(carboxy)methyl)-4,7-dimethyl-6-(p-tolyl)isoindoline-2-carbonyl)-5-fluorobenzoic acid], the IC50 (MT4, 96 h) is reported as 3460 nM.

In the case of Cc1c(-c2c(C)c3c(c(C)c2[C@H](OC(C)(C)C)C(=O)O)CN(C(=O)c2ccccc2C(C)(C)C)C3)cc(F)c2c1CCCO2 (atropisomer, axis not shown; (M)) [Example 155, (S)-2-(tert-butoxy)-2-(2-(2-(tert-butyl)benzoyl)-6-((M)-8-fluoro-5-methylchroman-6-yl)-4,7-dimethylisoindolin-5-yl)acetic acid], the IC50 (MT4, 96 h) is reported as 48 nM.

For Cc1ccc(-c2c(C)c3c(c(C)c2[C@H](OC(C)(C)C)C(=O)O)CN(C(=O)c2cccc4ccoc24)C3)cc1 [Example 167, (S)-2-(2-(benzofuran-7-carbonyl)-4,7-dimethyl-6-(p-tolyl)isoindolin-5-yl)-2-(tert-butoxy)acetic acid], the IC50 (MT4, 96 h) was 4 nM.

COc1ccc(F)c(C(=O)N2Cc3c(C)c(-c4ccc(C)cc4)c([C@H](OC(C)(C)C)C(=O)O)c(C)c3C2)c1 [Example 248, (S)-2-(tert-butoxy)-2-(2-(2-fluoro-5-methoxybenzoyl)-4,7-dimethyl-6-(p-tolyl)isoindolin-5-yl)acetic acid] was tested, and the IC50 (MT4, 96 h) was 5 nM.
